According to patent publication US9399646B2 (Genentech, Inc., priority 2010, dated 2016):

What was measured:
MCF-7 cells = assay: Breast cancer cell viability assay (CellTiter-Glo, 5 days); type: cell-based; conditions: 5 days' compound exposure; for IC50: Homo sapiens, MCF7, 120 h
Procedure, shortened: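 MCF-7 cells, 320 per well in RPMI with 10% FBS and 20 mM HEPES, adhered overnight, then exposed 5 days to an eleven-point semilog dilution (final 0.3-0.000003 μM). CellTiter-Glo luminescence read; % viability = (sample − cell-free background)/(untreated − background) × 100.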

ER-α in MCF-7 cells = molecular target: T1, ER-α in MCF-7 cells (Homo sapiens, UniProt P03372); assay: Breast cancer cell ER-α in cell western assay (SP1); type: cell-based; set-up: endogenous in cells; host or cells: MCF-7; conditions: 4 or 24 hr post compound addition; for Emax: MCF7, SP1 antibody, read-out: ER-α In Cell Western Assay (SP1) Max Response; for DC50: SP1 antibody, read-out: ER-α In Cell Western Assay (SP1) IC50
T1 sequence (P03372 1-595): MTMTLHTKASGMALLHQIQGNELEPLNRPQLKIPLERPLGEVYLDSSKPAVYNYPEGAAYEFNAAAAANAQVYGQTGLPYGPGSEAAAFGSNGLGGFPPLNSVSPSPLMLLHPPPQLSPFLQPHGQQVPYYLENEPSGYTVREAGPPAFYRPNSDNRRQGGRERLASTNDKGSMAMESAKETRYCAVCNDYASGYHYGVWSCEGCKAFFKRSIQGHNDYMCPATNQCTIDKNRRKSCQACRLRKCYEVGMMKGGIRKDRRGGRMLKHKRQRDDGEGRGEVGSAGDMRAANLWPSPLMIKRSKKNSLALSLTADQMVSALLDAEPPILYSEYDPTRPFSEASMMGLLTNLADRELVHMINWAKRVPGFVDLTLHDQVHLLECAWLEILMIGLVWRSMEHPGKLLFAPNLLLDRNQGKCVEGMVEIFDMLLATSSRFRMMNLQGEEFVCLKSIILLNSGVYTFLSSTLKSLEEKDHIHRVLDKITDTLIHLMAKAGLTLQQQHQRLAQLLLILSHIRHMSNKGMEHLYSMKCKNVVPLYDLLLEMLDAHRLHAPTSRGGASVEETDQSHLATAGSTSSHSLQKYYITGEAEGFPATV
Procedure, shortened: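 Percent remaining ER: SP1 immunofluorescence normalized to DRAQ5 nuclear stain, compared with untreated controls. Treatment lasted 4 or 24 hr across 0.3–0.000003 μM final in MCF-7.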

| SMILES | IC50 (MCF-7 cells) | Emax (ER-α in MCF-7 cells) | DC50 (ER-α in MCF-7 cells) | MCF7 Viability Assay Max Response (MCF-7 cells) |
| --- | --- | --- | --- | --- |
| CC/C(=C(/c1ccc(/C=C/C(=O)O)cc1)c1ccc2[nH]ncc2c1F)c1cccc(Oc2ccc(S(C)(=O)=O)nc2)c1 [Compound 378, (E)-3-(4-((E)-1-(4-Fluoro-1H-indazol-5-yl)-2-(3-((6-(methylsulfonyl)pyridin-3-yl)oxy)phenyl)but-1-en-1-yl)phenyl)acrylic acid] | ≤ 100 nM | ≥ 40% | ≤ 100 nM | ++ (++ = a single % value ≧ 40%) |
| CC/C(=C(/c1ccc(/C=C/c2nsc(=O)[nH]2)cc1)c1ccc2[nH]ncc2c1)c1ccc(F)cc1Cl [Compound 439, 3-((E)-4-((E)-2-(2-Chloro-4-fluorophenyl)-1-(1H-indazol-5-yl)but-1-en-1-yl)styryl)-1,2,4-thiadiazol-5(4H)-one] | ≤ 100 nM | ≥ 40% | ≤ 100 nM | ++ (++ = a single % value ≧ 40%) |
| CC/C(=C(/c1ccc(/C=C/C(=O)O)cc1)c1ccc2[nH]nnc2c1)c1ccccc1 [Compound 3, (E)-3-(4-((E)-1-(1H-Benzo[d][1,2,3]triazol-5-yl)-2-phenylbut-1-en-1-yl)phenyl)acrylic acid] | ≤ 100 nM | ≥ 40% | – | ++ (++ = a single % value ≧ 40%) |
| CC/C(=C(/c1ccc(/C=C/C(=O)O)cc1)c1ccc2ncccc2c1)c1ccc(F)cc1 [Compound 118, (E)-3-(4-((E)-2-(4-Fluorophenyl)-1-(quinolin-6-yl)but-1-en-1-yl)phenyl)acrylic acid] | > 100 nM | ≥ 40% | > 100 nM | ++ (++ = a single % value ≧ 40%) |
| CC/C(=C(/c1ccc(/C=C/C(=O)O)cc1)c1cccc2[nH]ncc12)c1ccccc1F [Compound 31, (E)-3-(4-((E)-2-(2-Fluorophenyl)-1-(1H-indazol-4-yl)but-1-en-1-yl)phenyl)acrylic acid] | ≤ 100 nM | ≥ 40% | ≤ 100 nM | ++ (++ = a single % value ≧ 40%) |
| CC/C(=C(/c1ccc(/C=C/C(=O)O)cc1)c1ccc2[nH]ncc2c1)c1ccc2nccnc2c1 [Compound 266, (E)-3-(4-((E)-1-(1H-Indazol-5-yl)-2-(quinoxalin-6-yl)but-1-en-1-yl)phenyl)acrylic acid] | ≤ 100 nM | ≥ 40% | ≤ 100 nM | ++ (++ = a single % value ≧ 40%) |
| CC/C(=C(/c1ccc(/C=C/C(=O)O)cc1)c1ccc2[nH]ncc2c1)c1sccc1C [Compound 241, (E)-3-(4-((E)-1-(1H-Indazol-5-yl)-2-(3-methylthiophen-2-yl)but-1-en-1-yl)phenyl)acrylic acid] | ≤ 100 nM | ≥ 40% | ≤ 100 nM | ++ (++ = a single % value ≧ 40%) |
| CC/C(=C(/c1ccc(/C=C/C(=O)O)cc1)c1ccc2[nH]ncc2c1)c1ccc(Oc2ccccc2)cc1Cl [Compound 291, (E)-3-(4-((E)-2-(2-Chloro-4-phenoxyphenyl)-1-(1H-indazol-5-yl)but-1-en-1-yl)phenyl)acrylic acid] | ≤ 100 nM | ≥ 40% | ≤ 100 nM | ++ (++ = a single % value ≧ 40%) |
| CC/C(=C(/c1ccc(/C=C/C(=O)O)cc1)c1ccc2[nH]ncc2c1)c1ccc2sc(C)nc2c1 [Compound 273, (E)-3-(4-((E)-1-(1H-Indazol-5-yl)-2-(2-methylbenzo[d]thiazol-5-yl)but-1-en-1-yl)phenyl)acrylic acid] | ≤ 100 nM | ≥ 40% | ≤ 100 nM | ++ (++ = a single % value ≧ 40%) |
| CC/C(=C(/c1ccc(/C=C/C(=O)O)cc1)c1ccc2[nH]ncc2c1)c1ccc(N(C)C)cc1 [Compound 62, (E)-3-(4-((E)-2-(4-(Dimethylamino)phenyl)-1-(1H-indazol-5-yl)but-1-en-1-yl)phenyl)acrylic acid] | > 100 nM | ≥ 40% | > 100 nM | ++ (++ = a single % value ≧ 40%) |

The next lines start with results.

| IC50 (MCF-7 cells) | Emax (ER-α in MCF-7 cells) | DC50 (ER-α in MCF-7 cells) | SMILES | MCF7 Viability Assay Max Response (MCF-7 cells) |
| --- | --- | --- | --- | --- |
| ≤ 100 nM | ≥ 40% | ≤ 100 nM | CC/C(=C(/c1ccc2cc(/C=C/C(=O)O)ccc2c1)c1ccc2[nH]ncc2c1)c1ccccc1 [Compound 180, (E)-3-(6-((E)-1-(1H-Indazol-5-yl)-2-phenylbut-1-en-1-yl)naphthalen-2-yl)acrylic acid] | ++ (++ = a single % value ≧ 40%) |
| ≤ 100 nM | ≥ 40% | ≤ 100 nM | CC/C(=C(/c1ccc(/C=C/C(=O)O)cc1)c1ccc2[nH]ncc2c1)c1cccc(Oc2ccc(S(C)(=O)=O)cc2)c1 [Compound 373, (E)-3-(4-((E)-1-(1H-Indazol-5-yl)-2-(3-(4-(methylsulfonyl)phenoxy)phenyl)but-1-en-1-yl)phenyl)acrylic acid] | ++ (++ = a single % value ≧ 40%) |
| ≤ 100 nM | ≥ 40% | ≤ 100 nM | CC/C(=C(/c1ccc(/C=C/C(=O)O)cc1)c1ccc2[nH]ncc2c1)c1ccncc1F [Compound 231, (E)-3-(4-((E)-2-(3-Fluoropyridin-4-yl)-1-(1H-indazol-5-yl)but-1-en-1-yl)phenyl)acrylic acid] | ++ (++ = a single % value ≧ 40%) |
| ≤ 100 nM | ≥ 40% | > 100 nM | CCOC(=O)/C=C/c1ccc(/C(=C(/CC)c2ccccc2)c2ccc3cn[nH]c3c2)cc1 [Compound 172, (E)-Ethyl 3-(4-((E)-1-(1H-indazol-6-yl)-2-phenylbut-1-en-1-yl)phenyl)acrylate] | + (+ = a single % value < 40%) |
| > 100 nM | ≥ 40% | > 100 nM | CC/C(=C(/c1ccc(/C=C/C(=O)O)cc1)c1cc(F)c2[nH]ncc2c1)c1cc[n+]([O-])cc1Cl [Compound 453, 4-((E)-1-(4-((E)-2-Carboxyvinyl)phenyl)-1-(7-fluoro-1H-indazol-5-yl)but-1-en-2-yl)-3-chloropyridine-1-oxide] | ++ (++ = a single % value ≧ 40%) |
| ≤ 100 nM | ≥ 40% | ≤ 100 nM | CC/C(=C(/c1ccc(OC[C@H](C)N2CC[C@@H](C)C2)cc1)c1ccc2[nH]ncc2c1)c1ccccc1Cl [Compound 330, 5-((E)-2-(2-Chlorophenyl)-1-(4-((S)-2-((R)-3-methylpyrrolidin-1-yl)propoxy)phenyl)but-1-en-1-yl)-1H-indazole] | ++ (++ = a single % value ≧ 40%) |
| ≤ 100 nM | ≥ 40% | ≤ 100 nM | Cc1cscc1/C(=C(\c1ccc(/C=C/C(=O)O)cc1)c1ccc2[nH]nc(F)c2c1)C1CCC1 [Compound 313, (E)-3-(4-((E)-2-Cyclobutyl-1-(3-fluoro-1H-indazol-5-yl)-2-(4-methylthiophen-3-yl)vinyl)phenyl)acrylic acid] | ++ (++ = a single % value ≧ 40%) |
| ≤ 100 nM | ≥ 40% | ≤ 100 nM | CC/C(=C(/c1ccc(/C=C/C(=O)O)cc1)c1ccc2[nH]ncc2n1)c1ccccc1 [Compound 120, (E)-3-(4-((E)-2-Phenyl-1-(1H-pyrazolo[4,3-b]pyridin-5-yl)but-1-en-1-yl)phenyl)acrylic acid] | ++ (++ = a single % value ≧ 40%) |
| > 100 nM | ≥ 40% | ≤ 100 nM | CC/C(=C(/c1ccc(/C=C/c2nn[nH]n2)cc1)c1ccc2scnc2c1)c1ccccc1 [Compound 444, 5-((E)-1-(4-((E)-2-(2H-Tetrazol-5-yl)vinyl)phenyl)-2-phenylbut-1-en-1-yl)benzo[d]thiazole] | ++ (++ = a single % value ≧ 40%) |
| ≤ 100 nM | ≥ 40% | ≤ 100 nM | CC/C(=C(/c1ccc(/C=C/C(=O)O)cc1)c1ccc2[nH]ncc2c1F)c1cccc(Oc2ncccn2)c1 [Compound 376, (E)-3-(4-((E)-1-(4-Fluoro-1H-indazol-5-yl)-2-(3-(pyrimidin-2-yloxy)phenyl)but-1-en-1-yl)phenyl)acrylic acid] | ++ (++ = a single % value ≧ 40%) |
| > 100 nM | ≥ 40% | ≤ 100 nM | CC/C(=C(/c1ccc(/C=C/C(=O)O)cc1)c1ccc2[nH]ncc2c1)c1ccc2cnn(C)c2c1 [Compound 258, (E)-3-(4-((E)-1-(1H-Indazol-5-yl)-2-(1-methyl-1H-indazol-6-yl)but-1-en-1-yl)phenyl)acrylic acid] | ++ (++ = a single % value ≧ 40%) |
